Experimental data taken from patent EP4818168A1, “FUSED RING COMPOUND, PHARMACEUTICAL COMPOSITION THEREOF AND USE THEREOF” (priority 2023, dated 2025).

What follows are molecules tested on H82 cells (assay: cells). Details: Homo sapiens, NCI-H82, read-out: IC50 in H82 Cells.
Assay type: cell-based
Protocol: CellTiter-Glo (CTG) is a rapid cell viability test method based on ATP detection. […] Adenosine triphosphate (ATP) participates in various enzymatic reactions in organisms and is an indicator of living cell metabolism. Its content directly reflects the number of living cells and cell status. During the experiment, equal volume of CTG reagent is added to the cultured cells to measure the luminescence value. The chemiluminescent signal value is proportional to the amount of ATP, thus reflecting the number of viable cells. Therefore, cell viability can be obtained by detecting the ATP content. Compounds that affect cell viability will inhibit cell viability in a concentration-dependent manner, allowing a curve to be fitted to obtain the IC50 value.
The experimental procedure is as follows: • 11. Place the cell suspension in a 15 mL centrifuge tube, centrifuge at 1000 rpm for 5 min at room temperature, discard the supernatant, and collect the cell pellet. • 12. Resuspend the cell pellet with preheated complete cell culture medium (RPMI1640+10%FBS+1%PS), and use a Countess® automated cell counter to detect cell viability and density. […] Transfer the compound solution to a 96-well plate seeded with cells (final concentration of DMSO 0.1%), and place in a cell incubator at 37°C, 5% CO2 for 6 days. • 15. […] Protect from light during the whole process. Perform optical signal readings using a SpectraMax i3x reader. • 16. Data analysis: Remaining activity (%) = 100% * (1 - ((LumDMSO - Lummedium) - Lumsample) / (LumDMSO - LumPBS/medium)). Use GraphPad Prism 9.0 software to draw an S-shaped dose-survival rate curve and calculate the IC50 value using a nonlinear regression model.
O=C1CCN(c2ccc(N3CCC4(CC3)CN(C3CN(c5ccc(Nc6ncc7c(n6)-c6ccc(Cl)cc6C(c6c(F)cccc6F)=NC7)cc5)C3)CCO4)nc2)C(=O)N1 [Compound A352] showed an IC50 of under 1000 nM.
In the case of O=C1CCN(c2ccc(N3CCC(N4CCC(c5ccc(Nc6ncc7c(n6)-c6ccc(Cl)cc6C(c6c(F)cccc6F)=NC7)cc5)C(F)(F)C4)CC3)nc2)C(=O)N1 (stereo not drawn) [Compound A350], the IC50 is reported as under 1000 nM.

Same assay, conditions: Homo sapiens, NCI-H82; H82 cells, 4000 cells/well, CellTiter-Glo; read-out: IC50 in H82 Cells
O=C1CCN(c2ccc(N3CCN(CCCOc4cccc(Nc5ncc6c(n5)-c5ccc(Cl)cc5C(c5c(F)cccc5F)=NC6)c4)CC3)cc2)C(=O)N1 [Compound A102] showed an IC50 of under 1000 nM.
Molecule O=C1CCN(c2cnc(N3CCN(CCN4Cc5ccc(Nc6ncc7c(n6)-c6ccc(Cl)cc6C(c6c(F)cccc6F)=NC7)cc5C4)CC3)s2)C(=O)N1 [Compound A174] has an IC50 of under 1000 nM.
With O=C1CCN(c2ccc(N3CCN(CC4CN(c5ccc(Nc6ncc7c(n6)-c6ccc(Cl)cc6C(c6c(F)cccc6F)=NC7)cn5)C4)CC3)nc2)C(=O)N1 [Compound A248] the IC50 was under 1000 nM.
CP(C)(=O)c1cc(N2CCN(C(=O)C3CCN(c4ccc(Nc5ncc6c(n5)-c5ccc(Cl)cc5C(c5c(F)cccc5F)=NC6)cc4)CC3)CC2)ccc1N1CCC(=O)NC1=O [Compound A288] was tested, and the IC50 was under 1000 nM.
O=C1CCN(c2ccc(N3CC4COCC(C3)N4C3CC4(CCN(c5ccc(Nc6ncc7c(n6)-c6ccc(Cl)cc6C(c6c(F)cccc6F)=NC7)cc5)CC4)C3)nc2)C(=O)N1 [Compound A360] showed an IC50 of under 1000 nM.
O=C1CCN(c2ccc(N3CC4(CC(N5CCN(c6ccc(Nc7ncc8c(n7)-c7ccc(Cl)cc7C(c7c(F)cccc7F)=NC8)cc6)C(=O)C5)CO4)C3)nc2)C(=O)N1 (stereo not drawn) [Compound A329] was tested, and the IC50 was under 1000 nM.
O=C1CCN(c2ccc(N3CCC4(CC3)CC(NC(=O)c3ccc(Nc5ncc6c(n5)-c5ccc(Cl)cc5C(c5c(F)cccc5F)=NC6)cc3)C4)cc2F)C(=O)N1 [Compound A96] gave an IC50 of under 1000 nM.
Work on O=C1CCN(c2ccc(N3CCC4(CC3)CC(NC(=O)c3ccc(Nc5ncc6c(n5)-c5ccccc5C(c5c(F)cccc5F)=NC6)cc3)C4)nc2)C(=O)N1 [Compound A116] yielded an IC50 of under 1000 nM.

The molecules below were run against T1, AURKA (Homo sapiens, UniProt O14965) (assay: not given). Details: 100 nM compound, Jurkat cells, 24 h, Table 2.
T1 construct: endogenous in cells; host or cells: Jurkat cells
T1 sequence (O14965 1-403): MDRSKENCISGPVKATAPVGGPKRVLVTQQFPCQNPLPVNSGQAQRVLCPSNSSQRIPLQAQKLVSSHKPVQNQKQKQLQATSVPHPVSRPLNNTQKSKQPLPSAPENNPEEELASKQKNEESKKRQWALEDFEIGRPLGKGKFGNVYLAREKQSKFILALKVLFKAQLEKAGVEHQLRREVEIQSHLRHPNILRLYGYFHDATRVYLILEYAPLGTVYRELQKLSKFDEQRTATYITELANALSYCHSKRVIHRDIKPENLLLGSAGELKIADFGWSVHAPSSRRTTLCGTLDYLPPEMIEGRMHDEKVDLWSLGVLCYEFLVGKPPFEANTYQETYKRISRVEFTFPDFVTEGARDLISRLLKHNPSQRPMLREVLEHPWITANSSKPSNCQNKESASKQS
Assay type: cell-based
From the text: WB is a classical biochemical experimental method used to detect the abundance of a target protein in a sample of cells or biological tissue. It relies on specific antigen-antibody binding to detect protein signals from the sample processed by gel electrophoresis: the protein specifically binds to a primary antibody at an epitope; the primary antibody is then conjugated with a secondary antibody to amplify the signal cascade; the signal is read out by chemiluminescent or fluorescent detection. The intracellular protein content is ultimately characterized by the intensity of the optical signals. […] The DC50 value can be calculated by curve fitting of the protein WB exposure signals.
The experimental procedure is as follows: • 1. Seed Jurkat cells into a 12-well plate at 1×10^6 cells/500 µL/well. • 2. Mix the culture medium with the compound to a concentration that is twice the desired final concentration. […] Transfer the cell suspension to a centrifuge tube. Rinse the 12-well plate with PBS and then transfer the PBS from the plate to the same centrifuge tube. Centrifuge at 3000 rpm for 5 min at room temperature. Aspirate the supernatant using a vacuum pump. […] Lyse on ice for 20 min. • 4. Centrifuge the lysed sample at 13000 rpm for 20 min at 4°C. Mix the supernatant with 5× protein loading buffer. Boil at 100°C for 5 min and then cool. Store the denatured protein sample at -20°C. • 5. […] Run electrophoresis at 80 V for 20 min, and then at 120 V constant voltage for 60 min. • 6. Transfer the protein onto a nitrocellulose membrane in an ice bath at 250 mA constant current for 90 min. • 7. […] Incubate with a primary antibody overnight at 4°C. • 9. […] Incubate with a secondary antibody for 1-2 h at room temperature. • 10. […] Expose and image the membrane using a LICOR Odyssey DLx imager.
With O=C1CCN(c2ccc(N3CCN(CCCOc4cccc(Nc5ncc6c(n5)-c5ccc(Cl)cc5C(c5c(F)cccc5F)=NC6)c4)CC3)cc2)C(=O)N1 [Compound A102] the “Percentage of AURKA Degradation Induced by 100 nM Compound in Jurkat Cells” value (“Percentage … by 100 nM Compound in Jurkat Cells” below) was “+ (Degradation ≤ 30%)”.
O=C1CCN(c2cnc(N3CCN(CCN4Cc5ccc(Nc6ncc7c(n6)-c6ccc(Cl)cc6C(c6c(F)cccc6F)=NC7)cc5C4)CC3)s2)C(=O)N1 [Compound A174] was tested, and the “Percentage … by 100 nM Compound in Jurkat Cells” value was “++ (30% < Degradation ≤ 70%)”.
For O=C1CCN(c2ccc(N3CCN(CC4CN(c5ccc(Nc6ncc7c(n6)-c6ccc(Cl)cc6C(c6c(F)cccc6F)=NC7)cn5)C4)CC3)nc2)C(=O)N1 [Compound A248], the “Percentage … by 100 nM Compound in Jurkat Cells” value was “+++ (Degradation > 70%)”.
CP(C)(=O)c1cc(N2CCN(C(=O)C3CCN(c4ccc(Nc5ncc6c(n5)-c5ccc(Cl)cc5C(c5c(F)cccc5F)=NC6)cc4)CC3)CC2)ccc1N1CCC(=O)NC1=O [Compound A288] was tested, and the “Percentage … by 100 nM Compound in Jurkat Cells” value was “+ (Degradation ≤ 30%)”.
With O=C1CCN(c2ccc(N3CC4COCC(C3)N4C3CC4(CCN(c5ccc(Nc6ncc7c(n6)-c6ccc(Cl)cc6C(c6c(F)cccc6F)=NC7)cc5)CC4)C3)nc2)C(=O)N1 [Compound A360] the “Percentage … by 100 nM Compound in Jurkat Cells” value was “+++ (Degradation > 70%)”.
For O=C1CCN(c2ccc(N3CC4(CC(N5CCN(c6ccc(Nc7ncc8c(n7)-c7ccc(Cl)cc7C(c7c(F)cccc7F)=NC8)cc6)C(=O)C5)CO4)C3)nc2)C(=O)N1 (stereo not drawn) [Compound A329], the “Percentage … by 100 nM Compound in Jurkat Cells” value was “+++ (Degradation > 70%)”.
In the case of O=C1CCN(c2ccc(N3CCC4(CC3)CC(NC(=O)c3ccc(Nc5ncc6c(n5)-c5ccc(Cl)cc5C(c5c(F)cccc5F)=NC6)cc3)C4)cc2F)C(=O)N1 [Compound A96], the “Percentage … by 100 nM Compound in Jurkat Cells” value is reported as “++ (30% < Degradation ≤ 70%)”.
For O=C1CCN(c2ccc(N3CCC4(CC3)CC(NC(=O)c3ccc(Nc5ncc6c(n5)-c5ccccc5C(c5c(F)cccc5F)=NC6)cc3)C4)nc2)C(=O)N1 [Compound A116], the “Percentage … by 100 nM Compound in Jurkat Cells” value was “+++ (Degradation > 70%)”.
In the case of O=C1CCN(c2ccc(N3CCC4(CC3)CN(C3CN(c5ccc(Nc6ncc7c(n6)-c6ccc(Cl)cc6C(c6c(F)cccc6F)=NC7)cc5)C3)CCO4)nc2)C(=O)N1 [Compound A352], the “Percentage … by 100 nM Compound in Jurkat Cells” value is reported as “+++ (Degradation > 70%)”.
In the case of O=C1CCN(c2ccc(N3CCC(N4CCC(c5ccc(Nc6ncc7c(n6)-c6ccc(Cl)cc6C(c6c(F)cccc6F)=NC7)cc5)C(F)(F)C4)CC3)nc2)C(=O)N1 (stereo not drawn) [Compound A350], the “Percentage … by 100 nM Compound in Jurkat Cells” value is reported as “+++ (Degradation > 70%)”.

Same assay, conditions: 1 µM compound, Jurkat cells, 24 h, Table 2
For O=C1CCN(c2ccc(N3CCN(CCCOc4cccc(Nc5ncc6c(n5)-c5ccc(Cl)cc5C(c5c(F)cccc5F)=NC6)c4)CC3)cc2)C(=O)N1 [Compound A102], the “Percentage of AURKA Degradation Induced by 1 µM Compound in Jurkat Cells” value (“Percentage … by 1 µM Compound in Jurkat Cells” for short) was “+ (Degradation ≤ 30%)”.
In the case of O=C1CCN(c2cnc(N3CCN(CCN4Cc5ccc(Nc6ncc7c(n6)-c6ccc(Cl)cc6C(c6c(F)cccc6F)=NC7)cc5C4)CC3)s2)C(=O)N1 [Compound A174], the “Percentage … by 1 µM Compound in Jurkat Cells” value is reported as “++ (30% < Degradation ≤ 70%)”.
O=C1CCN(c2ccc(N3CCN(CC4CN(c5ccc(Nc6ncc7c(n6)-c6ccc(Cl)cc6C(c6c(F)cccc6F)=NC7)cn5)C4)CC3)nc2)C(=O)N1 [Compound A248] was tested, and the “Percentage … by 1 µM Compound in Jurkat Cells” value was “+++ (Degradation > 70%)”.
CP(C)(=O)c1cc(N2CCN(C(=O)C3CCN(c4ccc(Nc5ncc6c(n5)-c5ccc(Cl)cc5C(c5c(F)cccc5F)=NC6)cc4)CC3)CC2)ccc1N1CCC(=O)NC1=O [Compound A288] was tested, and the “Percentage … by 1 µM Compound in Jurkat Cells” value was “+ (Degradation ≤ 30%)”.
With O=C1CCN(c2ccc(N3CC4COCC(C3)N4C3CC4(CCN(c5ccc(Nc6ncc7c(n6)-c6ccc(Cl)cc6C(c6c(F)cccc6F)=NC7)cc5)CC4)C3)nc2)C(=O)N1 [Compound A360] the “Percentage … by 1 µM Compound in Jurkat Cells” value was “+++ (Degradation > 70%)”.
For O=C1CCN(c2ccc(N3CC4(CC(N5CCN(c6ccc(Nc7ncc8c(n7)-c7ccc(Cl)cc7C(c7c(F)cccc7F)=NC8)cc6)C(=O)C5)CO4)C3)nc2)C(=O)N1 (stereo not drawn) [Compound A329], the “Percentage … by 1 µM Compound in Jurkat Cells” value was “+++ (Degradation > 70%)”.
In the case of O=C1CCN(c2ccc(N3CCC4(CC3)CC(NC(=O)c3ccc(Nc5ncc6c(n5)-c5ccc(Cl)cc5C(c5c(F)cccc5F)=NC6)cc3)C4)cc2F)C(=O)N1 [Compound A96], the “Percentage … by 1 µM Compound in Jurkat Cells” value is reported as “+++ (Degradation > 70%)”.
For O=C1CCN(c2ccc(N3CCC4(CC3)CC(NC(=O)c3ccc(Nc5ncc6c(n5)-c5ccccc5C(c5c(F)cccc5F)=NC6)cc3)C4)nc2)C(=O)N1 [Compound A116], the “Percentage … by 1 µM Compound in Jurkat Cells” value was “+++ (Degradation > 70%)”.
In the case of O=C1CCN(c2ccc(N3CCC4(CC3)CN(C3CN(c5ccc(Nc6ncc7c(n6)-c6ccc(Cl)cc6C(c6c(F)cccc6F)=NC7)cc5)C3)CCO4)nc2)C(=O)N1 [Compound A352], the “Percentage … by 1 µM Compound in Jurkat Cells” value is reported as “+++ (Degradation > 70%)”.
O=C1CCN(c2ccc(N3CCC(N4CCC(c5ccc(Nc6ncc7c(n6)-c6ccc(Cl)cc6C(c6c(F)cccc6F)=NC7)cc5)C(F)(F)C4)CC3)nc2)C(=O)N1 (stereo not drawn) [Compound A350] was tested, and the “Percentage … by 1 µM Compound in Jurkat Cells” value was “+++ (Degradation > 70%)”.
